Data on 53 compounds can be found in ChEMBL document CHEMBL3879908, “Pyrrolidinone carboxamide derivatives” (2014).

What is called IC50 is the concentration that gives 50% inhibition. A high value points to a need for much substance.

For this test, the target named is T1, Chemerin-like receptor 1 (Homo sapiens, UniProt Q99788).
T1 sequence (Q99788 whole entry): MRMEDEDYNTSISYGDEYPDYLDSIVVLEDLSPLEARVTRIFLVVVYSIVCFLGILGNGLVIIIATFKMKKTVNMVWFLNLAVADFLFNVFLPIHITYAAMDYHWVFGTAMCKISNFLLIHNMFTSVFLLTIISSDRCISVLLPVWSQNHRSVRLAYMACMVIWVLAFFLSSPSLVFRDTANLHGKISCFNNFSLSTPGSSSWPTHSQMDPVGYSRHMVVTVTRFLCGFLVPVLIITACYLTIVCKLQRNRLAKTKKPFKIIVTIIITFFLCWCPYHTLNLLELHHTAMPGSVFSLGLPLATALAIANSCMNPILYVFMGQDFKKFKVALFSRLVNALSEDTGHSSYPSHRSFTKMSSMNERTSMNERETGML
Briefly: Displacement of [125I]-chemerin from ChemR23 (unknown origin) transfected in mouse BaF3 cells after 3 hrs by scintillation counting method. Format: cell-based.
In turn, `Cc1cccc(F)c1N1CC(C(=O)Nc2cccc(Cl)c2)CC1=O` (stereo not drawn) had a half-maximal inhibitory concentration (IC50) of 300 to 6000 nM. The figure for `CCCN(C)C[C@@]1(C(=O)Nc2cc(C(F)(F)F)cc(C(F)(F)F)c2)CN(c2c(C)cccc2C)C(=O)[C@H]1C` is at most 30 nM. In turn, `CC[C@@]1(C(=O)Nc2cc(OC)cc(C(F)(F)F)c2)CN(c2c(C)cccc2C)C(=O)[C@H]1C` came in with an IC50 of 30 to 300 nM. On to `C=CCC1C(=O)N(c2c(C)cccc2C)CC1(CC=C)C(=O)Nc1cc(C(F)(F)F)cc(C(F)(F)F)c1` (stereo not drawn), for which the IC50 is at most 30 nM. In the case of `Cc1cccc(C)c1N1CC2(C(=O)Nc3cc(C(F)(F)F)cc(C(F)(F)F)c3)CCCC2C1=O` (stereo not drawn), the IC50 was at most 30 nM. Compound `CCc1cccc(NC(=O)C2CC(=O)N(c3c(C)cccc3C)C2)c1` (stereo not drawn) yielded an IC50 of 300 to 6000 nM. The figure for `Cc1cccc(C)c1N1CC(COCc2ccccc2)(C(=O)Nc2cc(C(F)(F)F)cc(C(F)(F)F)c2)CC1=O` (stereo not drawn) is at most 30 nM; for `COCCN(C)C[C@@]1(C(=O)Nc2cc(C#N)cc(C(F)(F)F)c2)CN(c2c(C)cccc2C)C(=O)[C@H]1C` it is 30 to 300 nM. The figure for `Cc1cccc(C)c1N1C[C@@](CN2CCOCC2)(C(=O)Nc2cc(C3CC3)cc(C(F)(F)F)c2)[C@H](C)C1=O` is 30 to 300 nM; for `Cc1cccc(C)c1N1C[C@@](CN(C)C2CCC2)(C(=O)Nc2cc(C(F)(F)F)cc(C(F)(F)F)c2)[C@H](C)C1=O` it is at most 30 nM; for `Cc1cccc(C)c1N1C[C@@](CN2CCC(F)(F)C2)(C(=O)Nc2cc(C#N)cc(C(F)(F)F)c2)[C@H](C)C1=O` it is at most 30 nM. `Cc1cccc(C)c1N1CC(C(=O)Nc2cc(C(F)(F)F)cc(C(F)(F)F)c2)(N2CCCC2)CC1=O` (stereo not drawn) came in with an IC50 of at most 30 nM.

For `Cc1cccc(C)c1N1CC(C(=O)Nc2cc(C(F)(F)F)cc(C(F)(F)F)c2)(C2CCN(C)CC2)CC1=O` (stereo not drawn), the IC50 lay in the range of 300 to 6000 nM.

In turn, `CC[C@@]1(C(=O)Nc2cc(C(F)(F)F)cc(C(F)(F)F)c2)CN(c2c(C)cccc2C)C(=O)[C@H]1OC` registered an IC50 of at most 30 nM. Compound `Cc1cccc(C)c1N1CC(C(=O)Nc2cc(C(F)(F)F)cc(C(F)(F)F)c2)(C2CCN(C(=O)OC(C)(C)C)CC2)CC1=O` (stereo not drawn) had a concentration for half-maximal inhibition (IC50) of at most 30 nM.

In the case of `CC(C)C1(C(=O)Nc2cc(C(F)(F)F)cc(C(F)(F)F)c2)CC(=O)N(c2ccccc2Cl)C1` (stereo not drawn), the concentration for half-maximal inhibition (IC50) lay in the range of 30 to 300 nM.

For the compound `Cc1cccc(C)c1N1CC(C(=O)Nc2cccc(C#N)c2)CC1=O` (stereo not drawn), the half-inhibitory concentration (IC50) lay in the range of 300 to 6000 nM. As for `Cc1cccc(C)c1N1C[C@@](CN(C)C(C)C)(C(=O)Nc2cc(C3CC3)cc(C(F)(F)F)c2)[C@H](C)C1=O`, the IC50 is 30 to 300 nM. Under `Cc1cccc(C)c1N1C[C@@](CN(C)CC(C)(C)C)(C(=O)Nc2cc(C(F)(F)F)cc(C(F)(F)F)c2)[C@H](C)C1=O` stands at most 30 nM.

The compound `Cc1cccc(C)c1N1CC(C(=O)Nc2cc(N3CCOCC3)cc(C(F)(F)F)c2)CC1=O` (stereo not drawn) showed an IC50 of 30 to 300 nM. Compound `Cc1cccc(Cl)c1N1CC(C(=O)Nc2cc(C(F)(F)F)cc(C(F)(F)F)c2)CC1=O` (stereo not drawn) returned an IC50 of 30 to 300 nM.

Compound `Cc1cccc(C)c1N1CC(C(=O)Nc2cc(C(F)(F)F)cc(C(F)(F)F)c2)(C2CCSCC2)CC1=O` (stereo not drawn) yielded an IC50 of at most 30 nM. `Cc1cccc(CCO)c1N1CC(C(=O)Nc2cc(C(F)(F)F)cc(C(F)(F)F)c2)(C(C)C)CC1=O` (stereo not drawn) displayed an IC50 of 300 to 6000 nM. With `CCC1(C(=O)Nc2cc(C(F)(F)F)cc(C(F)(F)F)c2)CC(=O)N(c2ccccc2OC)C1` (stereo not drawn), the half-inhibitory concentration (IC50) was 300 to 6000 nM. `CCC(C)(C)C1(C(=O)Nc2cc(C(F)(F)F)cc(C(F)(F)F)c2)CC(=O)N(c2c(C)cccc2C)C1` (stereo not drawn) showed an IC50 of 30 to 300 nM. Compound `Cc1cccc(C)c1N1CC(C(=O)Nc2cc(C3CC3)cc(C(F)(F)F)c2)CC1=O` (stereo not drawn) showed an IC50 of 300 to 6000 nM.

Consider `C=CCc1ccccc1N1CC(C(=O)Nc2cc(C(F)(F)F)cc(C(F)(F)F)c2)(C(C)C)CC1=O` (stereo not drawn), for which the IC50 is 30 to 300 nM.

The compound `CCc1cccc(C)c1N1CC(C(=O)Nc2ccc(C)c(C(F)(F)F)c2)CC1=O` (stereo not drawn) gave an IC50 of 300 to 6000 nM. `Cc1cccc(C)c1N1CC(C(=O)Nc2cc(C(F)(F)F)cc(C(F)(F)F)c2)(C2=CCOCC2)CC1=O` (stereo not drawn) had an IC50 of at most 30 nM. `Cc1cccc(C)c1N1C[C@@](CN2CCO[C@H](C)C2)(C(=O)Nc2cc(C#N)cc(C(F)(F)F)c2)[C@H](C)C1=O`: the IC50 was 30 to 300 nM. The figure for `Cc1cccc(C)c1N1CC(C(=O)Nc2cc(C(F)(F)F)cc(C(F)(F)F)c2)(N(C)C)CC1=O` (stereo not drawn) is at most 30 nM. The figure for `Cc1ccccc1N1CC(C(=O)Nc2cccc(C(F)(F)F)c2)CC1=O` (stereo not drawn) is 300 to 6000 nM. The figure for `Cc1cccc(C)c1N1C[C@@](CN2CCC(F)(F)C2)(C(=O)Nc2cc(C3CC3)cc(C(F)(F)F)c2)[C@H](C)C1=O` is 30 to 300 nM; for `Cc1cccc(CN2CCOCC2)c1N1CC(C(=O)Nc2cc(C(F)(F)F)cc(C(F)(F)F)c2)(C(C)C)CC1=O` (stereo not drawn) it is 30 to 300 nM. Compound `CC(C)C1(C(=O)Nc2cc(C(F)(F)F)cc(C(F)(F)F)c2)CC(=O)N(c2ccccc2CO)C1` (stereo not drawn) showed an IC50 of 300 to 6000 nM. With `Cc1cccc(C)c1N1C[C@@](CN2CCC(F)(F)CC2)(C(=O)Nc2cc(C(F)(F)F)cc(C(F)(F)F)c2)[C@H](C)C1=O`, the IC50 was at most 30 nM. With `Cc1cc(F)cc(C)c1N1CC(C(=O)Nc2cc(C(F)(F)F)cc(C(F)(F)F)c2)CC1=O` (stereo not drawn), the IC50 is 30 to 300 nM.

`Cc1cccc(C)c1N1CC(C(=O)Nc2cc(C(F)(F)F)cc(C(F)(F)F)c2)(C2CCCC2)CC1=O` (stereo not drawn): the concentration for half-maximal inhibition (IC50) was at most 30 nM. With `CC[C@@]1(C(=O)Nc2cc(C(F)(F)F)cc(C(F)(F)F)c2)CN(c2c(C)cccc2C)C(=O)[C@H]1C`, the IC50 fell in the range of 30 to 300 nM. `CCc1ccccc1N1CC(C(=O)Nc2cc(C(F)(F)F)cc(C(F)(F)F)c2)CC1=O` (stereo not drawn): the half-maximal inhibitory concentration (IC50) is 30 to 300 nM. The figure for `Cc1cccc(C)c1N1C[C@@](CN(C)C(C)C)(C(=O)Nc2cc(C(F)(F)F)cc(C(F)(F)F)c2)[C@H](C)C1=O` is at most 30 nM. Compound `CCN(CC)C[C@@]1(C(=O)Nc2cc(Cl)cc(C(F)(F)F)c2)CN(c2c(C)cccc2C)C(=O)[C@H]1C` showed an IC50 of 30 to 300 nM. `Cc1cccc(C)c1N1C[C@@](CN(C)CC(C)C)(C(=O)Nc2cc(OC(C)C)cc(C(F)(F)F)c2)[C@H](C)C1=O` had a concentration for half-maximal inhibition (IC50) of at most 30 nM. Under `Cc1cccc(CCN2CCOCC2)c1N1CC(C(=O)Nc2cc(C(F)(F)F)cc(C(F)(F)F)c2)(C(C)C)CC1=O` (stereo not drawn) stands 300 to 6000 nM; under `CNC1(C(=O)Nc2cc(C(F)(F)F)cc(C(F)(F)F)c2)CC(=O)N(c2c(C)cccc2C)C1` (stereo not drawn), at most 30 nM; under `Cc1ccc(C)c(N2CC(C(=O)Nc3cc(C(F)(F)F)cc(C(F)(F)F)c3)CC2=O)c1` (stereo not drawn), 30 to 300 nM.

`Cc1cccc(C)c1N1CC(C(=O)Nc2cc(Cl)cc(C(F)(F)F)c2)CC1=O` (stereo not drawn) gave a 50% inhibitory concentration (IC50) of 30 to 300 nM. As to `Cc1cccc(C)c1N1C[C@@](CN2CCC(F)(F)CC2)(C(=O)Nc2cc(OC(C)C)cc(C(F)(F)F)c2)[C@H](C)C1=O`, the IC50 is at most 30 nM. Under `Cc1cccc(C)c1N1C[C@@](CN2CCOC[C@H]2C)(C(=O)Nc2cc(C(F)(F)F)cc(C(F)(F)F)c2)[C@H](C)C1=O` stands 30 to 300 nM. The figure for `Cc1cccc(C)c1N1C[C@@](CN(C)CC2CCC2)(C(=O)Nc2cc(C(F)(F)F)cc(C(F)(F)F)c2)[C@H](C)C1=O` is 30 to 300 nM. Under `Cc1cccc(C)c1N1C[C@]2(C(=O)Nc3cc(C(F)(F)F)cc(C(F)(F)F)c3)CCO[C@@H]2C1=O` stands at most 30 nM; under `Cc1cccc(C)c1N1CC(NC(C)C)(C(=O)Nc2cc(C(F)(F)F)cc(C(F)(F)F)c2)CC1=O` (stereo not drawn), at most 30 nM. For `Cc1cccc(C)c1N1C[C@](C(=O)Nc2cc(C#N)cc(C(F)(F)F)c2)(C(C)C)CC1=O`, the IC50 is at most 30 nM.
